Tests used:
PKD2 = molecular target: T1, PKD2 (Homo sapiens, UniProt Q9BZL6); assay: In-vitro kinase assay: PKD2 phosphorylation of APOA4; assay type: biochemical; settings: recombinant human PKD2 and APOA4, western blot, FIG. 5H
T1 construct: purchased Abcam ab60875
T1 sequence (Q9BZL6 1-878): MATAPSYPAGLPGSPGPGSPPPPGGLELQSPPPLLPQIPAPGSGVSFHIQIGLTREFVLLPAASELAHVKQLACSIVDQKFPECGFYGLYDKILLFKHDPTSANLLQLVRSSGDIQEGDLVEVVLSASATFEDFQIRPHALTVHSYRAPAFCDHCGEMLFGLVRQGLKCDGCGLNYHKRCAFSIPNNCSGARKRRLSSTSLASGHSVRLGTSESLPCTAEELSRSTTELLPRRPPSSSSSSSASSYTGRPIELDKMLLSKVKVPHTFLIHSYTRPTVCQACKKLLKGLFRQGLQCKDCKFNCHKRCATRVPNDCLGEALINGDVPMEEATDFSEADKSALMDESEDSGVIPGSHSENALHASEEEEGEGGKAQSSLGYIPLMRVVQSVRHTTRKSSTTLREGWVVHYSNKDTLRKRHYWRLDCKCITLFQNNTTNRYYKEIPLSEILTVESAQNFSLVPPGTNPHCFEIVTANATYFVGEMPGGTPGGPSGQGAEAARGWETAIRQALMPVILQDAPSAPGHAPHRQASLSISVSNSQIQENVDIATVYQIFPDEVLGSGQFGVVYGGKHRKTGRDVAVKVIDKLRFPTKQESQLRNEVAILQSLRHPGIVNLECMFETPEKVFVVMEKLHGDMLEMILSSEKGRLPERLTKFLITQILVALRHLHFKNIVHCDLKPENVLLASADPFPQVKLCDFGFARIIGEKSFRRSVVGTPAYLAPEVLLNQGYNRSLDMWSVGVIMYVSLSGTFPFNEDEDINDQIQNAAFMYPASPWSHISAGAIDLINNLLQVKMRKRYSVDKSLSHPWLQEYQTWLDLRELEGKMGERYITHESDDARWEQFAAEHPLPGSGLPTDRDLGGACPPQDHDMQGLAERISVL
Experimental: Recombinant human proteins used for the study, PKD2 and APOA4, were both purchased from Abcam. […] Then, western blot was performed and incubated with a primary antibody against the phosphorylated motif (RxxS/T*) (Cell Signaling).

Caco2 cells = assay: Lipid transport (14C-fatty acid release) through Caco2 monolayer in transwell system; assay type: cell-based, human; settings: 24 h
Experimental: (§1) Lipid transport studies were assessed in Caco2 cells seeded in trans-wells. 1.5×10^5 cells were seeded into a 12-well cell culture insert of 1 μm pore size Trans-well and maintained in for 14 consecutive days with media change every two days. For the lipids uptake and release, the apical side of the membrane was loaded with radioactive ^14C-palmitic acid (0.2 μCi), oleic acid (1 mM), and taurocholic acid (2 mM) in DMEM high glucose 10% FBS. The basal medium contained DMEM high glucose 0.1% FBS. After 24 hours of incubation, cell lysates and the apical and basolateral medium was collected and the ^14C-palmitic acid was measured in a scintillation counter for aliquots of apical and basal medium and for cell lysate. The same protocol was used in Caco2 cells that were treated with CRT0066101 (3 and 5 μM) for 24 h (added together with the mentioned radioactive fatty acid cocktail).
In order to test the potential of PKD inhibitors to restrict lipid transport via epithelial monolayer, we employed Caco2 cells seeded into the Transwells system. Briefly, we plated 1.5×10^5 cells seeded into a 12-well cell culture inserts of 1-μm pore size Transwell and maintained in for 14 consecutive days with media change every 2 days. For the lipid uptake and release, the apical side of the membrane was loaded with radioactive 14C-palmitic acid (0.2 μCi), oleic acid (1 mM), and taurocholic acid (2 mM) in DMEM high glucose 10% FBS. The basal medium contained DMEM high glucose 0.1% FBS. After 24 h of incubation, cell lysates and the apical and basolateral medium were collected and the 14C-palmitic acid was measured in a scintillation counter for aliquots of apical and basal medium and for cell lysate. To assess the efficiency of different PKD inhibitors, Caco2 cells were treated with either CRT0066101 (5 μM), CID2011756 (20 μM), CID755673 (20 μM), 1-NM-PP1 (20 μM), or control solvent solution (DMSO) for 24 h (added together with the mentioned radioactive FA cocktail).

[1] = test system: Caco2 cells deficient in PKD2; assay: 14C-fatty acid basolateral release in Caco2 cells expressing shPkd2 in transwell system; assay type: cell-based, human; settings: 24 h, FIG. 6B
Experimental: Caco2 cells were cultured in Dulbecco's modified eagle's medium 4.5 g/L glucose (DMEM), 10% fetal bovine serum (FBS), non-essential amino acids (NEAA), 1 mM sodium pyruvate, and 40 μg/mL gentamycin. For the generation of shRNA cell lines, Pkd2 shRNA lentiviral sequences or scramble (non-targeting) were first cloned into the pLKO.1-puro vector then packed into viral particles in packaging cells (HEK293T) using 3rd generation packaging vectors. Caco2 cells were spinfected with viral supernatant then selected with puromycin and the deletion efficiency was further assessed by western blot.
as §1, with “The same protocol was used in Caco2 cells that were treated with CRT0066101 (3 and 5 μM) for 24 h (added together with the mentioned radioactive fatty acid cocktail).” left out

phosphorylated PKD2 = settings: oral 10 mg/kg once a day, HFD
Experimental: PKD inhibitor CRT0066101 was dissolved in water (10 mg/kg) and administered orally to the mice by daily gavage, while the control mice were gavaged with water. Mice were maintained on the specified diets and had ab libitum access to food and water. C57BL/6 mice were administered CRT inhibitor treatment at 4-weeks of age, while for the rescue experiment, inhibitor was given under the same circumstances but treatment started only after 7 weeks of HFD feeding. Intestinal barrier permeability was further assessed 1 hour after oral gavage of FITC-Dextran 4.
Proteins from tissues and cell culture were extracted with RIPA buffer supplemented with phosphatase and protease inhibitor (PPI, Thermo Fisher Scientific). Protein concentration was measured by Pierce™ BCA Protein Assay Kit (Thermo Fisher Scientific) following the manufacturer's protocol. Reduced protein extracts were separated on 10% SDS-PAGE gels by electrophoresis and transferred to PVDF membranes under wet transfer. Membranes were blocked in 5% (w/v) milk in TBS-T before overnight probing with indicated primary antibodies at 4° C., followed by TBS-T washes and incubation with corresponding secondary antibody.

PKD 1/2 = settings: oral, dose 8 times higher than used here, cited from earlier work

CC[C@@H](N)CNc1ccnc(-c2cc(-c3cnn(C)c3)ccc2O)n1 [CRT0066101]
PKD2-dependent phosphorylation of APOA4 (PKD2): abrogates PKD2-dependent phosphorylation
lipid transport through the Caco2 monolayer (Caco2 cells; 5 μM, vs DMSO, FIG. 8): significant reduction in lipid transport
TG secretion (basolateral release of 14C-labeled fatty acids) (Caco2 cells; Caco2 transwell, 3 and 5 μM, FIG. 6A): reduces TG secretion in a dose dependent manner
TG secretion (basolateral release of 14C-labeled fatty acids) [1]: did not reduce TG secretion
PKD activity in liver or adipose tissue (phosphorylated PKD2): no similar decrease was observed
intestinal PKD activity (phosphorylated PKD2 in jejunum) (phosphorylated PKD2; 13 weeks, FIG. 6C): attenuated
reduction in PKD 1/2 activation (PKD 1/2; pancreatic tumors): 50%
time of highest concentrations in pancreatic tumors (PKD 1/2): 2 h

From US20240082260A1, “INHIBITOR OF PROTEIN KINASE D FOR USE IN PREVENTION OR TREATMENT OF HYPERLIPIDEMIA” (priority 2021, published 2024)
